These results are taken from patent US4003887A, “Novel penicillins and their preparation” (Sumitomo Chemical Company, Limited, priority 1972, dated 1977).

In brackets after ≈: the same amount, converted by molar mass. Where only a bound is given, the exact number is not on record here.

By MIC is commonly meant the smallest concentration in the dilution series that meets the test's criterion for growth inhibition. Read a high MIC as a less susceptible organism.

In assay [1] the test system is Klebsiella pneumoniae PC1602. Description: Minimal inhibitory concentration, agar dilution method. Type of assay: cell-based. From the text:
(§1) When determined according to the agar dilution method, the penicillins (I) afford the minimal inhibitory concentrations against test microorganisms as shown in Table 2.
(In general: In agar dilution, organisms are placed on agar that contains the substance at set levels.)

Assay [2] relates to gram-positive and gram-negative bacteria. The conditions noted are these: literature, words; cited from earlier work.
Assay [3] has as its system Pseudomonas. The conditions noted are these: literature, words; cited from earlier work.
Assay [4] has as its system Proteus miravilis GN2425. The assay can be described thus: Minimal inhibitory concentration, agar dilution method. Type of assay: cell-based.
The subject of assay [5] is Escherichia coli NIHJ. Described as above. The class given is cell-based.
Text: as §1

The test system of assay [6] is Pseudomonas aeruginosa 104. The assay is described as above. The class given is cell-based.
Text: as §1

Assay [7] deals with Staphylococcus aureus 209P. Described as above. The class given is cell-based.
Text: as §1

For `CC1(C)S[C@@H]2C(NC(=O)C(N)c3ccc(O)cc3)C(=O)N2[C@H]1C(=O)O` (stereo partly drawn) [Amoxycillin, 6-(α-amino-p-hydroxyphenylacetamido)penicillanic acid], the MIC in assay [1] was more than 200 µg/mL. For the same compound, the “inhibition of growth of gram-positive and gram-negative bacteria” value (“inhibition” for short) in assay [2] is “inhibit the growth of various gram-positive and gram-negative bacteria”. The “antimicrobial activity against Pseudomonas” value (from here on “antimicrobial activity”) in assay [3] is recorded as “do not exert any appreciable antimicrobial activity against Pseudomonas”.

On to `CC1(C)S[C@@H]2[C@H](NC(=O)[C@H](NC(=O)c3cnc4ccc(NC(=O)OCc5ccccc5)cc4c3O)c3ccc(O)cc3)C(=O)N2[C@H]1C(=O)O` [Example 21], for which the MIC in assay [4] is 12.5 µg/mL (≈ 18.2 µM); in assay [5], 12.5 µg/mL (≈ 18.2 µM); in assay [1], 3.13 µg/mL (≈ 4.56 µM); in assay [6], 12.5 µg/mL (≈ 18.2 µM); in assay [7] it was 0.39 µg/mL (≈ 0.569 µM).

Take `CC1(C)S[C@@H]2[C@H](NC(=O)C3(N)CCCCC3)C(=O)N2[C@H]1C(=O)O` [Cyclacillin, 6-(1-amino-cyclohexane)carboxamidopenicillanic acid]: in assay [2], the “inhibition” value was “inhibit the growth of various gram-positive and gram-negative bacteria”. In addition, in assay [3], the “antimicrobial activity” value is “do not exert any appreciable antimicrobial activity against Pseudomonas”.

`CC1(C)S[C@@H]2C(NC(=O)C(N)c3ccccc3)C(=O)N2[C@H]1C(=O)O` (stereo partly drawn) [Ampicillin, 6-(α-amino-phenylacetamido)penicillanic acid]: the “inhibition” value in assay [2] was “inhibit the growth of various gram-positive and gram-negative bacteria”. For the same compound, the “antimicrobial activity” value in assay [3] is listed as “do not exert any appreciable antimicrobial activity against Pseudomonas”.

`CC1(C)S[C@@H]2[C@H](NC(=O)[C@H](NC(=O)c3cnc4ccc(O)nc4c3O)c3ccc(O)cc3)C(=O)N2[C@H]1C(=O)O` [Example 22] came in with an MIC in assay [1] of 12.5 µg/mL (≈ 22.6 µM).

With `CCOC(=O)Oc1ccc([C@@H](NC(=O)c2cnc3cccnc3c2OC(=O)OCC)C(=O)N[C@@H]2C(=O)N3[C@@H]2SC(C)(C)[C@@H]3C(=O)O)cc1` [Example 37], 12.5 µg/mL (≈ 18.3 µM) was the least that counted as inhibitory in assay [1] (MIC).

For the compound `CC1(C)S[C@@H]2[C@H](NC(=O)[C@H](N)C3=CCC=CC3)C(=O)N2[C@H]1C(=O)O` [Epicillin, 6-[α-amino-2-(1,4-hexadienylacetamido)]penicillanic acid], in assay [2], the “inhibition” value is “inhibit the growth of various gram-positive and gram-negative bacteria”. Further, the “antimicrobial activity” value in assay [3] is listed as “do not exert any appreciable antimicrobial activity against Pseudomonas”.

For `CCOC(=O)Oc1c(C(=O)N[C@@H](C(=O)N[C@@H]2C(=O)N3[C@@H]2SC(C)(C)[C@@H]3C(=O)O)c2ccc(OC(=O)OCc3ccccc3)cc2)cnc2cccnc12` [Example 5, D-α-(4-ethoxycarbonyloxy-1,5-naphthyridine-3-carboxamido)-p-benzyloxycarbonyloxybenzylpenicillin], in assay [1], the MIC was found to be 12.5 µg/mL (≈ 16.8 µM).

Regarding `CCOC(=O)Oc1ccc([C@@H](NC(=O)c2cnc3cc4c(cc3c2S)OCO4)C(=O)N[C@@H]2C(=O)N3[C@@H]2SC(C)(C)[C@@H]3C(=O)O)cc1` [Example 38], the MIC in assay [1] came out at 6.25 µg/mL (≈ 9.35 µM). This MIC is about 2-fold lower than that of the compound before.

In assay [1], `CC1(C)S[C@@H]2[C@H](NC(=O)[C@H](NC(=O)c3cc4ccccc4nc3O)c3ccc(O)cc3)C(=O)N2[C@H]1C(=O)O` [Example 27] showed an MIC of 12.5 µg/mL (≈ 23.3 µM).

Regarding “6-(α-amino-thienylacetamido)penicillanic acid”, in assay [2], the “inhibition” value is “inhibit the growth of various gram-positive and gram-negative bacteria”. For the same compound, the “antimicrobial activity” value in assay [3] is reported as “do not exert any appreciable antimicrobial activity against Pseudomonas”.

In assay [1], `COc1ccc2ncc(C(=O)N[C@@H](C(=O)N[C@@H]3C(=O)N4[C@@H]3SC(C)(C)[C@@H]4C(=O)O)c3ccc(O)cc3)c(O)c2n1` [Example 19] displayed an MIC of 12.5 µg/mL (≈ 22 µM).

The compound `CCOC(=O)Oc1ccc([C@@H](NC(=O)c2cnc3cccnc3c2O)C(=O)N[C@@H]2C(=O)N3[C@@H]2SC(C)(C)[C@@H]3C(=O)O)cc1` [Example 9, D-α-(4-hydroxy-1,5-naphthyridine-3-carboxamido)-p-ethoxycarbonyloxybenzylpenicillin] yielded an MIC in assay [1] of 12.5 µg/mL (≈ 20.5 µM).

For the compound `CC1(C)S[C@@H]2[C@H](NC(=O)[C@H](NC(=O)c3nnc4ccccc4c3O)c3ccc(O)cc3)C(=O)N2[C@H]1C(=O)O` [Example 8, D-α-(4-hydroxycinnoline-3-carboxamido)-p-hydroxybenzylpenicillin], the MIC in assay [1] came out at 25 µg/mL (≈ 46.5 µM).

`CC1(C)S[C@@H]2[C@H](NC(=O)C(C(=O)O)c3ccccc3)C(=O)N2[C@H]1C(=O)O` (some centres unmarked) [Carbenicillin, reference compound] had an MIC in assay [1] of more than 200 µg/mL.

“6 -(α-amino-isothiazolylacetamido)penicillanic acid”: the “inhibition” value in assay [2] is “inhibit the growth of various gram-positive and gram-negative bacteria”. The “antimicrobial activity” value in assay [3] was “do not exert any appreciable antimicrobial activity against Pseudomonas”.

In assay [1], `Cc1ccc2ncc(C(=O)N[C@@H](C(=O)N[C@@H]3C(=O)N4[C@@H]3SC(C)(C)[C@@H]4C(=O)O)c3ccc(O)cc3)c(O)c2n1` [Example 18] yielded an MIC of 12.5 µg/mL (≈ 22.7 µM).

For the compound `CC1(C)S[C@@H]2[C@H](NC(=O)[C@H](NC(=O)c3cnc4cccnc4c3O)c3ccc(O)cc3)C(=O)N2[C@H]1C(=O)O` [Example 1, D-α-(4-hydroxy-1,5-naphthyridine-3-carboxyamido)-p-hydroxybenzylpenicillin], the MIC in assay [1] was 12.5 µg/mL (≈ 23.3 µM).
